Data on 6 molecules can be found in ChEMBL document CHEMBL2203089, “Synthesis of enantiomerically pure perhydro-1,4-diazepine-2,5-dione and 1,4-piperazine-2,5-dione derivatives exhibiting potent activity as apoptosis inhibitors” (Bioorg Med Chem Lett, 2012).

The EC50 is the concentration giving half of the maximal effect.

The structures appear in SMILES notation. Activity calls are given as the source filed them. The calls are words filed in the database; no cut-off is given here.

Experiment [1] addresses Apoptotic protease-activating factor 1/Caspase-3/Caspase-9/Cytochrome c (Homo sapiens, UniProt O14727+P42574+P55211+P99999). The experiment in a line: Inhibition of Apaf-1-caspase 9-cytochrome c-caspase 3 complex in human HEK293 cytosolic extract using afc-DEVD as substrate preincubated for 30 mins before substrate addition measured after 30 mins by fluorescence assay.
Experiment [2] can be described thus: Inhibition of Apaf-1-caspase 9-cytochrome c (horse) complex assessed as inhibition of release of afc from […] preincubated for 60 mins before substrate addition by fluorescence assay.
Experiment [3] is described as follows: Inhibition of beta-lactamase.

Apoptotic protease-activating factor 1/Caspase-3/Caspase-9/Cytochrome c, sequence (O14727 whole entry): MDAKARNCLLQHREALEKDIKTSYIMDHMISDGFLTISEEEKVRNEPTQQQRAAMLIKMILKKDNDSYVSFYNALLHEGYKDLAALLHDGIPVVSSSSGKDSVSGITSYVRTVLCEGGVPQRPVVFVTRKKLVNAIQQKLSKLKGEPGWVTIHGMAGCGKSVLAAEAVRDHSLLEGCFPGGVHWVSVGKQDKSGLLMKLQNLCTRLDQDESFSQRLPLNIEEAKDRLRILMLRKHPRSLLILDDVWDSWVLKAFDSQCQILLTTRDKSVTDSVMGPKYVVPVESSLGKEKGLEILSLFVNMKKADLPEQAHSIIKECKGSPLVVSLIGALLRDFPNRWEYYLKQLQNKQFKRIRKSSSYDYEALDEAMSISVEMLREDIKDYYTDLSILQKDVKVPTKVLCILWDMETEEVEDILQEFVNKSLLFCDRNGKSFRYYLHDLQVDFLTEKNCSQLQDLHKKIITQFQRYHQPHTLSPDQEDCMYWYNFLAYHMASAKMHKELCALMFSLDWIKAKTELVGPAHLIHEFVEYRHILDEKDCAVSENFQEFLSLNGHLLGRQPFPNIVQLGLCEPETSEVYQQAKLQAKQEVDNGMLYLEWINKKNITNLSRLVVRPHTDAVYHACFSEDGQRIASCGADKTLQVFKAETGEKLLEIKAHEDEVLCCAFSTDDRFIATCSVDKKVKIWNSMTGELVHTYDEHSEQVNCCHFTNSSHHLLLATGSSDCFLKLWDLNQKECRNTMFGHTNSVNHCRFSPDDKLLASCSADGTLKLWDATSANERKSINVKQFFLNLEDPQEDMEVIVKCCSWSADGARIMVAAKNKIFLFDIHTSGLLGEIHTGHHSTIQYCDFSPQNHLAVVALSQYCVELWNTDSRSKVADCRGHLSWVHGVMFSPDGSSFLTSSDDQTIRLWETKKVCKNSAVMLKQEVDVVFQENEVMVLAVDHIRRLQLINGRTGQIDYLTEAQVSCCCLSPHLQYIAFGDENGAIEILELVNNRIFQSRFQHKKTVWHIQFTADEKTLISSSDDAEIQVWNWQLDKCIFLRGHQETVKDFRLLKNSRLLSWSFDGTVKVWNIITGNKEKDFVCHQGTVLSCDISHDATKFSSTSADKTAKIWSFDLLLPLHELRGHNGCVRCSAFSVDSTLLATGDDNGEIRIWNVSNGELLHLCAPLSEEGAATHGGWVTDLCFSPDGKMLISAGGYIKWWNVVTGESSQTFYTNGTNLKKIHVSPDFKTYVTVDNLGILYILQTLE
Apoptotic protease-activating factor 1/Caspase-3/Caspase-9/Cytochrome c, sequence (P42574 29-175 limits assumed): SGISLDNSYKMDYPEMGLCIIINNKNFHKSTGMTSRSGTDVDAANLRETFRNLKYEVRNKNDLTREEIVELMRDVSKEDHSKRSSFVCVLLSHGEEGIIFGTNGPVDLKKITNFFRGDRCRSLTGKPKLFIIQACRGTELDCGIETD
Apoptotic protease-activating factor 1/Caspase-3/Caspase-9/Cytochrome c, sequence (P42574 176-277 limits assumed): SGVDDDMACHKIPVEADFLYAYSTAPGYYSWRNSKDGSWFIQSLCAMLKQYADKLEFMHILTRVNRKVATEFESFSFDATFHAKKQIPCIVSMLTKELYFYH
Apoptotic protease-activating factor 1/Caspase-3/Caspase-9/Cytochrome c, sequence (P55211 1-315 limits assumed): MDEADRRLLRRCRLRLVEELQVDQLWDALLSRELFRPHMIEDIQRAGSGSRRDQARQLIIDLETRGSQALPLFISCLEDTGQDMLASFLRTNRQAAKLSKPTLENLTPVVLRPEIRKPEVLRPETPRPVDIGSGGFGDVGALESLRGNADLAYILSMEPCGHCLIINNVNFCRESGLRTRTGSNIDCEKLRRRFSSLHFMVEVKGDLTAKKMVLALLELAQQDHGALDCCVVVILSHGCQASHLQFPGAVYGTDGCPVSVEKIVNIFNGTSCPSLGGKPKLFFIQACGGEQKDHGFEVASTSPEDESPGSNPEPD
Apoptotic protease-activating factor 1/Caspase-3/Caspase-9/Cytochrome c, sequence (P55211 331-416 limits assumed): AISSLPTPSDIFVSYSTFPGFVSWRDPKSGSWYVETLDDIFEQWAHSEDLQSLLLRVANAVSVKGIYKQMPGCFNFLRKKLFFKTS
Apoptotic protease-activating factor 1/Caspase-3/Caspase-9/Cytochrome c, sequence (P99999 2-105 limits assumed): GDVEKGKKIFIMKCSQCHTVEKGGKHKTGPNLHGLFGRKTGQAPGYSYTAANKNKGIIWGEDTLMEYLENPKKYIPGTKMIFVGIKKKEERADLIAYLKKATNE

For `NC(=O)CN(CCc1ccc(Cl)cc1Cl)C(=O)C1CC(=O)N(CCc2ccc(Cl)cc2Cl)CC(=O)N1CCC(c1ccccc1)c1ccccc1` (racemic), the results for the 50% effective concentration (EC50) in experiment [1] and in experiment [2] were 16.8 µM and 7.9 µM, respectively.
On to `NC(=O)CN(CCc1ccc(Cl)cc1Cl)C(=O)C[C@@H]1C(=O)N(CCc2ccc(Cl)cc2Cl)CC(=O)N1CCC(c1ccccc1)c1ccccc1`, for which the values for the EC50 in experiment [1] and in experiment [2] were 29.9 µM and 10.6 µM, respectively. For the same molecule, the inhibition entry in experiment [3] was “inactive”.
In the case of `NC(=O)CN(CCc1ccc(Cl)cc1Cl)C(=O)[C@H]1CC(=O)N(CCc2ccc(Cl)cc2Cl)CC(=O)N1CCC(c1ccccc1)c1ccccc1`, the results for the half-maximal effective concentration (EC50) in experiment [1] and in experiment [2] were 14.4 µM and 5 µM, respectively. Also, the inhibition entry in experiment [3] is “inactive”.
`NC(=O)CN(CCc1ccc(Cl)cc1Cl)C(=O)CC1C(=O)N(CCc2ccc(Cl)cc2Cl)CC(=O)N1CCC(c1ccccc1)c1ccccc1` (racemic): the results for the concentration giving a half-maximal response (EC50) in experiment [1] and in experiment [2] were 17 µM and 6.2 µM, respectively.
As to `NC(=O)CN(CCc1ccc(Cl)cc1Cl)C(=O)C[C@H]1C(=O)N(CCc2ccc(Cl)cc2Cl)CC(=O)N1CCC(c1ccccc1)c1ccccc1`, the EC50 in experiment [1] was determined as 23.9 µM; in experiment [2], 9.6 µM. The inhibition entry in experiment [3] is “inactive”.
As for `NC(=O)CN(CCc1ccc(Cl)cc1Cl)C(=O)[C@@H]1CC(=O)N(CCc2ccc(Cl)cc2Cl)CC(=O)N1CCC(c1ccccc1)c1ccccc1`, the EC50 turned out to be 14 µM in experiment [1] and 3.2 µM in experiment [2]. Besides, the inhibition result in experiment [3] was “inactive”.
